{"source": "patent US20180340225A1", "about": "(SHANGHAI INSTITUTE FOR ENDOCRINE AND METABOLIC DISEASES, priority 2015, published 2018)", "test_system": "patients with Type 2 diabetes", "test": "Clinical efficacy indexes before and after 3 months of Acarbose treatment in naïve patients with Type 2 diabetes, by enterotype", "format": "in vivo, human", "settings": "Bacterioide enterotype, After treatment", "protocol": "For naïve patients with Type 2 diabetes, their liver and kidney functions, blood glucose and lipid levels, intestinal hormones, inflammatory factors, and cardiovascular risk-related factors are evaluated before medication. Their stool, urine, and blood samples are retained. […] The patients' blood glucose levels are followed up every month within 3 months, and the medication is adjusted according to the blood glucose level. Three months later, the pre-medication assessment is repeated, and the urine, stool and blood samples are retained.\na) A randomized, opened, positive control method is adopted to collect the naïve patients with Type 2 diabetes and normal controls of their spouses. […] The newly diagnosed patients of Type 2 diabetes without medication receive routine examinations, including the retention of stool and blood samples.\ni. Draw venous blood 15 ml under fasting condition, of which, 1.5 ml is used for detection of plasma glucose, 6.5 ml is added to ordinary tubes (including aprotinin, DPPV inhibitor), and 6.5 ml is added to anticoagulant tubes (including heparin and RNA later)\nii. Centrifuge the blood in ordinary tube at 4° C., when serum is separated out, draw about 3 ml, and divide to three 1.5 ml Eppendorf on average, then tighten the tube caps;\niii. Centrifuge the anticoagulation blood immediately at 4° C., to separate out about 3 ml of plasma, then divide to three 1.5 ml imported RNAase free Eppendorf tubes on average, […]", "data": [{"smiles": "C[C@H]1O[C@H](O[C@H]2[C@H](O)[C@@H](O)[C@@H](O[C@H]3[C@H](O)[C@@H](O)C(O)O[C@@H]3CO)O[C@@H]2CO)[C@H](O)[C@@H](O)[C@@H]1N[C@H]1C=C(CO)[C@@H](O)[C@H](O)[C@H]1O", "note": "(stereo partly shown) [Acarbose]", "values": [{"measurement": "AKP Mean", "result": 59.23}, {"measurement": "ALB Mean", "result": 42.26}, {"measurement": "ALT Mean", "result": 29.43}, {"measurement": "APOA Mean", "result": 1.2475}, {"measurement": "APOB Mean", "result": 0.9636}, {"measurement": "AST Mean", "result": 22.46}, {"measurement": "Adipisin Mean", "result": 3174901.441}, {"measurement": "Adpn Mean", "result": 5157339.824}, {"measurement": "BMI Mean", "result": 25.51}, {"measurement": "BW Mean", "result": 71.91}, {"measurement": "CP0 Mean", "result": 2.216}, {"measurement": "CP30 Mean", "result": 2.7525}, {"measurement": "CP60 Mean", "result": 3.71}, {"measurement": "CP120 Mean", "result": 5.204}, {"measurement": "CP180 Mean", "result": 4.843}, {"measurement": "DBIL Mean", "result": 2.966}, {"measurement": "DBP Mean", "result": 75.37}, {"measurement": "ENDOM Mean", "result": 13.44}, {"measurement": "Endothelin Mean", "result": 4.159}, {"measurement": "FABP3 Mean", "result": 2351}, {"measurement": "FABP4 Mean", "result": 11504.54286}, {"measurement": "FGF1M Mean", "result": 22.57}, {"measurement": "FGF2M Mean", "result": 12.69}, {"measurement": "FGF19M Mean", "result": 19.74}, {"measurement": "FGF23M Mean", "result": 37.07}, {"measurement": "G30 Mean", "result": 7.623}, {"measurement": "G60 Mean", "result": 9.074}, {"measurement": "G120 Mean", "result": 9.171}, {"measurement": "G180 Mean", "result": 7.941}, {"measurement": "GIP0 Mean", "result": 80.26}, {"measurement": "GIP30 Mean", "result": 219.1}, {"measurement": "GIP60 Mean", "result": 258.945}, {"measurement": "GIP120 Mean", "result": 264}, {"measurement": "GIP180 Mean", "result": 201.6}, {"measurement": "GMCSFM Mean", "result": 64.62}, {"measurement": "GO Mean", "result": 6.607}, {"measurement": "HB Mean", "result": 140.6}, {"measurement": "HBA1C Mean", "result": 6.425}, {"measurement": "HDL Mean", "result": 2.989}, {"measurement": "HGF Mean", "result": 434.2}, {"measurement": "HIP Mean", "result": 98.83}, {"measurement": "HOMA.IR Mean", "result": 2.487}, {"measurement": "IFNr1 Mean", "result": 42.1}, {"measurement": "IL1B Mean", "result": 0.5324}, {"measurement": "IL1bM Mean", "result": 14.66}, {"measurement": "IL2M Mean", "result": 53.46}, {"measurement": "IL4M Mean", "result": 30.73}, {"measurement": "IL5M Mean", "result": 38.44}, {"measurement": "IL6M Mean", "result": 55.85}, {"measurement": "IL6 Mean", "result": 4.846}, {"measurement": "IL8 Mean", "result": 11.92}, {"measurement": "IL9M Mean", "result": 84.63}, {"measurement": "IL10 Mean", "result": 2.301}, {"measurement": "IL12 Mean", "result": 10.12}, {"measurement": "IL13 Mean", "result": 311.7}, {"measurement": "IL15M Mean", "result": 333.3}, {"measurement": "IL17AM Mean", "result": 33.74}, {"measurement": "IL17EM Mean", "result": 22.24}, {"measurement": "IL17FM Mean", "result": 181.4}, {"measurement": "IL21 Mean", "result": 29.13}, {"measurement": "IL22M Mean", "result": 42.5}, {"measurement": "IL23M Mean", "result": 39.35}, {"measurement": "IL27 Mean", "result": 61.28}, {"measurement": "IL28a Mean", "result": 20.04}, {"measurement": "IL31M Mean", "result": 113}, {"measurement": "IL33M Mean", "result": 42.13}, {"measurement": "INS0 Mean", "result": 8.284}, {"measurement": "INS30 Mean", "result": 14.5}, {"measurement": "INS60 Mean", "result": 23.7}, {"measurement": "INS120 Mean", "result": 30.33}, {"measurement": "INS180 Mean", "result": 22.83}, {"measurement": "K Mean", "result": 7.893}, {"measurement": "LBP Mean", "result": 17.36}, {"measurement": "LDL Mean", "result": 1.242}, {"measurement": "LEPTIN Mean", "result": 6481}, {"measurement": "LPA Mean", "result": 32.841}, {"measurement": "Lymph Mean", "result": 28.87}, {"measurement": "MCP1 Mean", "result": 256.6}, {"measurement": "MIP3A Mean", "result": 43.77}, {"measurement": "NEU Mean", "result": 58.47}, {"measurement": "NGAL Mean", "result": 125535.0294}, {"measurement": "NGF Mean", "result": 1.865}, {"measurement": "Na Mean", "result": 136.9}, {"measurement": "PAI1 Mean", "result": 52769.94118}, {"measurement": "PDGFAA Mean", "result": 4702}, {"measurement": "PDGFAABB Mean", "result": 24130.63636}, {"measurement": "PP0 Mean", "result": 80.32}, {"measurement": "PP30 Mean", "result": 331.7}, {"measurement": "PP60 Mean", "result": 330.8}, {"measurement": "PP120 Mean", "result": 258.8}, {"measurement": "PP180 Mean", "result": 174}, {"measurement": "RANTES Mean", "result": 50811.91176}, {"measurement": "RBC Mean", "result": 4.832}, {"measurement": "RCv Mean", "result": 2.58}, {"measurement": "SBP Mean", "result": 120.9}, {"measurement": "TBIL Mean", "result": 16.36}, {"measurement": "TC Mean", "result": 4.736}, {"measurement": "TG Mean", "result": 1.525}, {"measurement": "TNFBM Mean", "result": 38.44}, {"measurement": "TNFa Mean", "result": 4.773}, {"measurement": "TPRO Mean", "result": 70.11}, {"measurement": "Trophonin M Mean", "result": 16.15}, {"measurement": "WAIST Mean", "result": 88.45}, {"measurement": "WBC Mean", "result": 6.913}, {"measurement": "WHR Mean", "result": 0.8956}, {"measurement": "bun Mean", "result": 329.2}, {"measurement": "creatine Mean", "result": 67.61}, {"measurement": "crp Mean", "result": 29.96}, {"measurement": "egf Mean", "result": 183.4}, {"measurement": "fetuinA Mean", "result": 400.9}, {"measurement": "fgf1 Mean", "result": 11.66}, {"measurement": "fgf2 Mean", "result": 35.4}, {"measurement": "fgf21M Mean", "result": 100.1}, {"measurement": "fgf21 Mean", "result": 0.37}, {"measurement": "monocyte Mean", "result": 5.481}, {"measurement": "mpo Mean", "result": 275.8}, {"measurement": "oscatinM Mean", "result": 86.94}, {"measurement": "pCP0 Mean", "result": 1099}, {"measurement": "pCP30 Mean", "result": 1394}, {"measurement": "pCP60 Mean", "result": 1891}, {"measurement": "pCP120 Mean", "result": 2787}, {"measurement": "pCP180 Mean", "result": 2452}, {"measurement": "pGLP10 Mean", "result": 4.564}, {"measurement": "pGLP130 Mean", "result": 12.21}, {"measurement": "pGLP160 Mean", "result": 13.2}, {"measurement": "pGLP1120 Mean", "result": 10.47}, {"measurement": "pGLP1180 Mean", "result": 7.518}, {"measurement": "pHOMA.IR Mean", "result": 2.565}, {"measurement": "pgh0 Mean", "result": 55.75}, {"measurement": "pgh30 Mean", "result": 70.15}, {"measurement": "pgh60 Mean", "result": 66.51}, {"measurement": "pgh120 Mean", "result": 58.56}, {"measurement": "pgh0180 Mean", "result": 60.3}, {"measurement": "pgluc0 Mean", "result": 37.3}, {"measurement": "pgluc30 Mean", "result": 43.28}, {"measurement": "pgluc60 Mean", "result": 43.96}, {"measurement": "pgluc120 Mean", "result": 35.95}, {"measurement": "pgluc180 Mean", "result": 32.29}, {"measurement": "pins0 Mean", "result": 391}, {"measurement": "pins30 Mean", "result": 561.8}, {"measurement": "pins60 Mean", "result": 892.8875}, {"measurement": "pins120 Mean", "result": 1169}, {"measurement": "pins180 Mean", "result": 916.7}, {"measurement": "platelet Mean", "result": 214}, {"measurement": "ppyy0 Mean", "result": 49.602}, {"measurement": "ppyy30 Mean", "result": 55.74}, {"measurement": "ppyy60 Mean", "result": 59.37}, {"measurement": "ppyy120 Mean", "result": 54.45}, {"measurement": "ppyy180 Mean", "result": 56.15}, {"measurement": "rGT Mean", "result": 24.82}, {"measurement": "resistin Mean", "result": 14639.64706}, {"measurement": "sicam1 Mean", "result": 112.3}, {"measurement": "svcam1 Mean", "result": 484.8}, {"measurement": "urea Mean", "result": 4.731}, {"measurement": "vegfa Mean", "result": 475.2}, {"measurement": "vegfc Mean", "result": 106.3}, {"measurement": "vegfd Mean", "result": 145.4}]}]}
